Data on eleven compounds can be found in ChEMBL document CHEMBL1201862, “PubChem BioAssay data set” (2004).

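Each compound was tested at five concentrations against cells in 96-well plates for 48 hours. At the GI50, growth is halved.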 The source made the active and inactive calls. Cut-off read from the data, not from the text of the source: active = GI50 up to about 1.1 µM and inactive = higher.

Common to all, as to assay: growth of human tumour cells (NCI), 48 h
The subject of experiment [1] is SF-539.
Experiment [2] deals with SK-MEL-5.
For experiment [3], the system named is MDA-MB-231.
Experiment [4] relates to MOLT-4.
The subject of experiment [5] is CCRF-CEM.
The test system of experiment [6] is K562.
The test system of experiment [7] is EKVX.
Experiment [8] has as its system BT-549.
The test system of experiment [9] is TK-10.
For experiment [10], the system named is NCI-H226.
Experiment [11] has as its system SW-620.
Experiment [12] deals with DU-145.
Experiment [13] relates to SF-295.
Experiment [14] concerns A549.
The subject of experiment [15] is SN12C.
The test system of experiment [16] is SR.
Experiment [17] concerns HT-29.
The test system of experiment [18] is OVCAR-4.
Experiment [19] relates to MCF7.
For experiment [20], the system named is A498.

For the compound `Cc1ccc(-c2nc3cc([N+](=O)[O-])ccc3[nH]2)cc1`, the GI50 in experiment [1] is > 100 µM (inactive); in experiment [2], 64.7 µM (inactive); in experiment [3], > 100 µM (inactive); in experiment [4] it was 47.4 µM (inactive); in [5], 39.6 µM (inactive); in experiment [6], 59.3 µM (inactive). Moreover, the GI50 was 51.6 µM (inactive) in experiment [7]; > 100 µM (inactive) in experiment [8]; > 100 µM (inactive) in experiment [9]; > 100 µM (inactive) in [10]; > 100 µM (inactive) in experiment [11]; 82.8 µM (inactive) in experiment [12]. Moreover, the GI50 is 63 µM (inactive) in experiment [13]; 54.1 µM (inactive) in experiment [14]; > 100 µM (inactive) in experiment [15]; 70.8 µM (inactive) in experiment [16]; 39.2 µM (inactive) in experiment [17]; 81.8 µM (inactive) in experiment [18]. Further, the GI50 in experiment [19] is > 100 µM (inactive).

Take `CCOC(=O)Cc1nc2nn(Cc3ccccc3)cc2c(=O)[nH]1`: the GI50 in [1], in experiment [2], in [3], in [4], in experiment [5] and in [6] was > 100 µM (inactive) throughout. The GI50 is 19.3 µM (inactive) in experiment [20]; > 100 µM (inactive) in experiment [7]; > 100 µM (inactive) in [8]; > 100 µM (inactive) in [9]; > 100 µM (inactive) in experiment [10]; > 100 µM (inactive) in experiment [11]. For the same compound, the GI50 in experiment [12], in experiment [13], in [14], in [15], in experiment [17] and in experiment [18] was > 100 µM (inactive) throughout. In addition, the GI50 in [19] was > 100 µM (inactive).

As for `O=P1(Oc2ccccc2)N=P(c2ccccc2)(c2ccccc2)C=C(c2ccc(Cl)cc2)N1` (configuration not stated), the GI50 in experiment [1] is 15.3 µM (inactive); in experiment [2], 2.25 µM (inactive); in [3] it was 16.5 µM (inactive); in experiment [4], 5.18 µM (inactive); in experiment [5] it was 9.38 µM (inactive); in [6], 5.43 µM (inactive). The GI50 in experiment [7] is 7.89 µM (inactive); in [8], 16 µM (inactive); in experiment [9], 13.1 µM (inactive); in [11] it was 12.3 µM (inactive); in experiment [12] it was 13.9 µM (inactive); in experiment [13] it was 6.92 µM (inactive). Also, the GI50 was 3.97 µM (inactive) in experiment [14]; 16.6 µM (inactive) in [15]; 3.6 µM (inactive) in experiment [16]; 4.29 µM (inactive) in experiment [17]; 2.45 µM (inactive) in experiment [19].

With `Cc1ccc2nc(Cl)c(/C=N/N3C(=O)/C(=C/c4cccc([N+](=O)[O-])c4)N=C3c3ccccc3)cc2c1`, the GI50 in experiment [1] is > 100 µM (inactive); in [2] it was 43.5 µM (inactive); in experiment [3], 93.1 µM (inactive); in [4] it was 29.2 µM (inactive); in experiment [5] it was 25.9 µM (inactive); in [6] it was 47.6 µM (inactive). For the same compound, the GI50 is 7.71 µM (inactive) in experiment [20]; 54.6 µM (inactive) in experiment [7]; > 100 µM (inactive) in experiment [8]; > 100 µM (inactive) in experiment [9]; 75.5 µM (inactive) in experiment [11]; > 100 µM (inactive) in [12]. Also, the GI50 was 40.9 µM (inactive) in experiment [13]; 60.1 µM (inactive) in experiment [14]; 35.7 µM (inactive) in experiment [15]; 19.8 µM (inactive) in [16]; 45.3 µM (inactive) in experiment [17]; 58.7 µM (inactive) in experiment [18]. Moreover, the GI50 in experiment [19] was 20.3 µM (inactive).

As to `O=C1C=C(Nc2cccnc2)c2ccccc2/C1=N/O`, the GI50 is 18.5 µM (inactive) in experiment [1]; 4.67 µM (inactive) in experiment [2]; 16.7 µM (inactive) in experiment [3]; 15.7 µM (inactive) in experiment [4]; 5.85 µM (inactive) in experiment [5]; 24.7 µM (inactive) in experiment [6]. Further, the GI50 in experiment [20] is 41.3 µM (inactive); in experiment [7], 14.7 µM (inactive); in experiment [8] it was 34.1 µM (inactive); in experiment [9], > 100 µM (inactive); in experiment [10], 58.7 µM (inactive); in experiment [11], 18.3 µM (inactive). The GI50 in [12] is 50.5 µM (inactive); in experiment [13] it was 39.2 µM (inactive); in experiment [14], 39.6 µM (inactive); in [15] it was 34.4 µM (inactive); in experiment [17], 11.1 µM (inactive); in experiment [18] it was 19.6 µM (inactive). For the same compound, in [19], the GI50 is 21.6 µM (inactive).

`Cc1n(Cc2ccccc2)c2c([n+]1C)C(=O)c1ccccc1C2=O`: the GI50 in [1] is 0.026 µM (active); in experiment [2], 0.0211 µM (active); in experiment [3], 0.0583 µM (active); in [4], 0.0421 µM (active); in experiment [5] it was 0.456 µM (active); in [6], 0.0366 µM (active). The GI50 was 0.129 µM (active) in experiment [20]; 0.181 µM (active) in [7]; 0.0822 µM (active) in experiment [8]; 0.265 µM (active) in [9]; 0.237 µM (active) in experiment [10]; 0.0455 µM (active) in experiment [11]. Besides, the GI50 in experiment [12] is 0.156 µM (active); in experiment [13], 0.199 µM (active); in experiment [14], 0.0478 µM (active); in experiment [15] it was 0.0318 µM (active); in experiment [17], 0.0417 µM (active); in experiment [18], 0.0401 µM (active). In experiment [19], the GI50 was 0.0158 µM (active).

`CN1CCC23c4c5ccc(O)c4OC2c2[nH]c4ccccc4c2CC3(O)C1C5` (configuration not stated): the GI50 in [2] was 13.5 µM (inactive); in experiment [3], 31.5 µM (inactive); in [4] it was 18.6 µM (inactive); in experiment [5], 22 µM (inactive); in [6], 14 µM (inactive); in experiment [20] it was 18.8 µM (inactive). The GI50 in experiment [7] is 92.9 µM (inactive); in experiment [8] it was 45.1 µM (inactive); in experiment [9], 18.9 µM (inactive); in experiment [11], 22.4 µM (inactive); in [12] it was 97.7 µM (inactive); in experiment [13], 52.4 µM (inactive). The GI50 in experiment [14] was 53 µM (inactive); in experiment [15], 70.5 µM (inactive); in [16] it was 26.6 µM (inactive); in [17], 31.9 µM (inactive); in [18] it was 38.5 µM (inactive); in experiment [19] it was 36.3 µM (inactive).

`CO/C(=N\N=C\c1ccccc1F)c1ccncc1`: the GI50 in experiment [3], in experiment [4], in experiment [5], in [6], in experiment [7] and in [8] was > 10 µM (inactive) in each case. The GI50 in experiment [9], in experiment [10], in experiment [11], in experiment [12], in experiment [13] and in experiment [14] was > 10 µM (inactive) throughout. For the same compound, the GI50 in [15], in [16], in [17], in experiment [18] and in experiment [19] was > 10 µM (inactive) each time.

Take `O=c1oc2ccccc2cc1/C=N/N1C(=S)N(c2ccccc2)C(=N\c2ccccc2)/C1=N/c1ccccc1`: the GI50 in experiment [1] was > 100 µM (inactive); in experiment [2], 87.7 µM (inactive); in experiment [3], > 100 µM (inactive); in experiment [4], > 100 µM (inactive); in [6] it was > 100 µM (inactive); in experiment [7], > 100 µM (inactive). For the same compound, the GI50 in experiment [8] was > 100 µM (inactive); in experiment [9] it was > 100 µM (inactive); in experiment [10] it was > 100 µM (inactive); in experiment [11] it was 8.71 µM (inactive); in experiment [12], > 100 µM (inactive); in experiment [13], 28.1 µM (inactive). For the same compound, the GI50 in experiment [14] is > 100 µM (inactive); in experiment [15], > 100 µM (inactive); in [16], > 100 µM (inactive); in experiment [17] it was > 10 µM (inactive); in experiment [19] it was > 100 µM (inactive).

Turning to `COC(=O)c1ccccc1C1CN=NC12Cc1c(C)ccc(C)c1C2=O` (configuration not stated), the GI50 was > 100 µM (inactive) in experiment [1]; > 100 µM (inactive) in [2]; > 100 µM (inactive) in [3]; 88.5 µM (inactive) in experiment [4]; > 100 µM (inactive) in [5]; 68.5 µM (inactive) in [6]. Moreover, the GI50 in [20], in [7], in experiment [8], in experiment [9], in [10] and in [11] was > 100 µM (inactive) each time. In addition, the GI50 in experiment [12], in [13], in experiment [14], in experiment [15], in experiment [17] and in [18] was > 100 µM (inactive) throughout. In addition, in experiment [19], the GI50 is > 100 µM (inactive).

Take `CC(C)=CCC/C(C)=C/CO` [GERANIOL]: the GI50 in experiment [1], in [2], in [3], in experiment [4], in experiment [5] and in [6] was > 100 µM (inactive) in each case. The GI50 in experiment [20], in experiment [7], in experiment [8], in [9], in experiment [10] and in [11] was > 100 µM (inactive) in each case. Further, the GI50 in experiment [12], in experiment [13], in experiment [14], in [15], in [17] and in experiment [18] was > 100 µM (inactive) throughout. Moreover, the GI50 in experiment [19] is > 100 µM (inactive).
